This test relates to Mycobacterium tuberculosis H37Rv strains. Nature of the test: In vitro assay for antimicrobial susceptibility (microplate Alamar blue MIC). The format is cell-based. Conditions: Mycobacterium tuberculosis, H37RV, read-out: MIC (μg/mL) against H37Rv. (In general: Resazurin is reduced to fluorescent resorufin, in cell work by metabolically active cells.)
Setting [1] is: 7H9, Alamar blue, inhibition ≧90%.
Setting [2] is: in vitro, Mycobacterium tuberculosis H37Rv strains.

Converted amounts (≈) assume the structure as drawn. Where two headings read alike, the source gives them in different places.

On to `Clc1ccc(-n2c3c/c(=N\C4CCOCC4)c(Nc4cncnc4)cc-3nc3ccccc32)cc1` [TBI-960, 5-(4-Chlorophenyl)-3-(4-tetrahydropyranyl)imino-2-(pyrimidin-5-yl)amino-3,5-dihydrophenazine], for which the MIC under setting [1] turned out to be 0.03 µg/mL (≈ 0.0621 µM).

With `COc1ncccc1Nc1cc2nc3ccc(F)cc3n(-c3ccc(Cl)cc3)c-2c/c1=N\C1CCCCC1` [TBI-927, 7-Fluoro-5-(4-chlorophenyl)-3-cyclohexylimino-2-(2-methoxy-3-pyridyl)amino-3,5-dihydrophenazine], the MIC under setting [2] turned out to be 0.04 µg/mL (≈ 0.0758 µM).

In the case of `Cc1ccc(Nc2cc3nc4cc(F)ccc4n(-c4ccc(Cl)c(Cl)c4)c-3c/c2=N\C2CCOCC2)cn1` [TBI-873, 8-Fluoro-5-(3,4-dichlorophenyl)-3-(4-tetrahydropyranyl)imino-2-(6-methyl-3-pyridyl)amino-3,5-dihydrophenazine], the MIC under setting [2] worked out at 0.076 µg/mL (≈ 0.139 µM).

For `CC(C)CN1CCC(/N=c2\cc3n(-c4ccc(F)cc4)c4ccccc4nc-3cc2Nc2cccnc2)CC1` [TBI-683, 5-(4-Fluorophenyl)-3-(N-isobutyl-4-piperidyl)imino-2-(3-pyridyl)amino-3,5-dihydrophenazine], the MIC under setting [2] stood at 0.125 µg/mL (≈ 0.24 µM).

Consider `COc1ncccc1Nc1cc2nc3ccccc3n(-c3ccc(C(F)(F)F)cc3)c-2c/c1=N\C1CCOCC1` [TBI-701, 5-(4-Trifluoromethylphenyl)-3-(4-tetrahydropyranyl)imino-2-(2-methoxy-3-pyridyl)amino-3,5-dihydrophenazine], for which the MIC under setting [2] was found to be 0.016 µg/mL (≈ 0.0293 µM).

In the case of `COc1ccc2nc3cc(Nc4cccnc4OC)/c(=N/C4CCC4)cc-3n(-c3ccc(Cl)cc3)c2c1` [TBI-895, 7-Methoxy-5-(4-chlorophenyl)-3-cyclobutylimino-2-(2-methoxy-3-pyridyl)amino-3,5-dihydrophenazine], under setting [2], the MIC came out at 0.125 µg/mL (≈ 0.244 µM).

For the compound `Fc1ccc(-n2c3c/c(=N\C4CCCCC4)c(Nc4cccnc4)cc-3nc3ccccc32)cc1F` [TBI-527, 5-(3,4-Difluorophenyl)-3-cyclohexylimino-2-(3-pyridyl)amino-3,5-dihydrophenazine], the MIC under setting [2] came out at 0.039 µg/mL (≈ 0.081 µM).

For `COC1CCC(/N=c2\cc3n(-c4ccc(Cl)c(Cl)c4)c4ccccc4nc-3cc2Nc2ccc(C)nc2)CC1` (centres unmarked) [TBI-355, 5-(3,4-Dichlorophenyl)-3-(4-methoxycyclohexyl)imino-2-(6-methyl-3-pyridyl)amino-3,5-dihydrophenazine], the MIC under setting [2] stood at 0.09 µg/mL (≈ 0.161 µM).

`FC(F)(F)Oc1ccc(-n2c3c/c(=N\CCN4CCOCC4)c(Nc4cccnc4)cc-3nc3ccccc32)cc1` [TBI-160]: the MIC under setting [2] stood at 0.125 µg/mL (≈ 0.223 µM).

Regarding `COc1ncccc1Nc1cc2nc3ccccc3n(-c3ccc(C(F)(F)F)cc3)c-2c/c1=N\CCN1CCOCC1` [TBI-704, 5-(4-Trifluoromethylphenyl)-3-(2-morpholinoethyl)imino-2-(2-methoxy-3-pyridyl)amino-3,5-dihydrophenazine], under setting [2], the MIC turned out to be 0.061 µg/mL (≈ 0.106 µM).

As for `Cc1ccc(-n2c3c/c(=N\C4CCOCC4)c(Nc4cccnc4C)cc-3nc3ccccc32)cc1` [TBI-323, 5-(4-Methylphenyl)-3-(4-tetrahydropyranyl)imino-2-(2-methyl-3-pyridyl)amino-3,5-dihydrophenazine], the MIC under setting [2] came out at 0.057 µg/mL (≈ 0.12 µM).

Take `CC(=O)Nc1ccc(Nc2cc3nc4ccccc4n(-c4ccc(F)cc4)c-3c/c2=N\C(C)C)cn1` [TBI-910, 5-(4-Fluorophenyl)-3-(1-methylethyl)imino-2-(6-acetamino-3-pyridyl)amino-3,5-dihydrophenazine]: the MIC under setting [2] was 0.147 µg/mL (≈ 0.306 µM).

In the case of `FC(F)(F)c1ccc(-n2c3c/c(=N\C4CCOCC4)c(Nc4cccnc4)cc-3nc3ccccc32)cc1` [TBI-686, 5-(4-Trifluoromethylphenyl)-3-(4-tetrahydropyranyl)imino-2-(3-pyridyl)amino-3,5-dihydrophenazine], under setting [2], the MIC was 0.125 µg/mL (≈ 0.242 µM).

In the case of `COc1ncccc1Nc1cc2nc3ccccc3n(-c3ccccc3)c-2c/c1=N\C1CCN(C)CC1` [TBI-062, 5-Phenyl-3-(N-methyl-4-piperidyl)imino-2-(2-methoxy-3-pyridyl)amino-3,5-dihydrophenazine], under setting [2], the MIC is 0.061 µg/mL (≈ 0.124 µM).

As to `COc1ncccc1Nc1cc2nc3ccccc3n(-c3ccc(F)cc3)c-2c/c1=N\C1CCOCC1` [TBI-1003, 5-(4-Fluorophenyl)-3-(4-tetrahydropyranyl)imino-2-(2-methoxy-3-pyridyl)amino-3,5-dihydrophenazine], the MIC under setting [2] is 0.039 µg/mL (≈ 0.0787 µM).

`COC1CCC(/N=c2\cc3n(-c4ccc(C(F)(F)F)cc4)c4ccccc4nc-3cc2Nc2cncc(C)c2)CC1` (centres unmarked) [TBI-724, 5-(4-Trifluoromethylphenyl)-3-(4-methoxycyclohexyl)imino-2-(5-meth-3-pyridyl)amino-3,5-dihydrophenazine]: the MIC under setting [2] was determined as 0.03 µg/mL (≈ 0.0538 µM).

Regarding `Cc1ccncc1Nc1cc2nc3ccccc3n(-c3ccc(F)cc3)c-2c/c1=N\C1CC1` [TBI-940, 5-(4-Fluorophenyl)-3-cyclopropylimino-2-(4-methyl-3-pyridyl)amino-3,5-dihydrophenazine], the MIC under setting [2] amounted to 0.062 µg/mL (≈ 0.142 µM).

Consider `COc1ncccc1Nc1cc2nc3cc(F)ccc3n(-c3ccc(OC(F)(F)F)cc3)c-2c/c1=N\C1CCC(OC)CC1` (centres unmarked) [TBI-861, 8-Fluoro-5-(4-trifluoromethoxyphenyl)-3-(4-methoxycyclohexyl)imino-2-(2-methoxy-3-pyridyl)amino-3,5-dihydrophenazine], for which, under setting [2], the MIC turned out to be 0.058 µg/mL (≈ 0.0955 µM).

Consider `COc1ncccc1Nc1cc2nc3ccccc3n(-c3ccc(C(F)(F)F)cc3)c-2c/c1=N\C1CCN(C)CC1` [TBI-703, 5-(4-Trifluoromethylphenyl)-3-(N-methyl-4-piperidyl)imino-2-(2-methoxy-3-pyridyl)amino-3,5-dihydrophenazine], for which, under setting [2], the MIC is 0.02 µg/mL (≈ 0.0358 µM).

Regarding `COc1ncccc1Nc1cc2nc3ccccc3n(-c3ccc(C(F)(F)F)cc3)c-2c/c1=N\C1CCN(CC(C)C)CC1` [TBI-702], the MIC under setting [2] worked out at 0.016 µg/mL (≈ 0.0266 µM).

As for `Cc1ccc(Nc2cc3nc4cc(F)ccc4n(-c4ccc(OC(F)(F)F)cc4)c-3c/c2=N\C2CC2)cn1` [TBI-864, 8-Fluoro-5-(4-trifluoromethoxyphenyl)-3-cyclopropylimino-2-(6-methyl-3-pyridyl)amino-3,5-dihydrophenazine], the MIC under setting [2] amounted to 0.057 µg/mL (≈ 0.11 µM).

For the compound `COc1ncccc1Nc1cc2nc3cc(F)ccc3n(-c3ccc(Cl)cc3)c-2c/c1=N\C1CCC(OC)CC1` (centres unmarked) [TBI-936, 8-Fluoro-5-(4-chlorophenyl)-3-(4-methoxycyclohexyl)imino-2-(2-methoxy-3-pyridyl)amino-3,5-dihydrophenazine], the MIC under setting [2] amounted to 0.06 µg/mL (≈ 0.108 µM).

Take `CO[C@H]1CC[C@H](/N=c2\cc3n(-c4ccc(F)cc4)c4ccccc4nc-3cc2Nc2ccc(C)nc2)CC1` [TBI-907, 5-(4-Fluorophenyl)-3-(1′,4′-trans-4-methoxycyclohexyl)imino-2-(6-methyl-3-pyridyl)amino-3,5-dihydrophenazine]: the MIC under setting [2] stood at 0.063 µg/mL (≈ 0.124 µM).

Consider `Cc1ccc(Nc2cc3nc4ccccc4n(-c4ccc(C(F)(F)F)cc4)c-3c/c2=N\CCN2CCOCC2)cn1` [TBI-698, 5-(4-Trifluoromethylphenyl)-3-(2-morpholinoethyl)imino-2-(6-meth-3-pyridyl)amino-3,5-dihydrophenazine], for which the MIC under setting [2] was found to be 0.108 µg/mL (≈ 0.193 µM).

On to `Cc1cncc(Nc2cc3nc4ccccc4n(-c4ccc(C(F)(F)F)cc4)c-3c/c2=N\C2CCC2)c1` [TBI-726, 5-(4-Trifluoromethylphenyl)-3-cyclobutylimino-2-(5-methyl-3-pyridyl)amino-3,5-dihydrophenazine], for which, under setting [2], the MIC was found to be 0.058 µg/mL (≈ 0.116 µM).

As to `COc1ncccc1Nc1cc2nc3ccccc3n(-c3ccc(C)cc3)c-2c/c1=N\C1CCN(CC(C)C)CC1` [TBI-314, 5-(4-Methylphenyl)-3-(N-isobutyl-4-piperidyl)imino-2-(2-methoxy-3-pyridyl)amino-3,5-dihydrophenazine], the MIC under setting [2] was 0.024 µg/mL (≈ 0.0439 µM).

For `Clc1ccc(-n2c3c/c(=N\C4CCCCC4)c(Nc4cccnc4)cc-3nc3ccccc32)c(Cl)c1` [TBI-368, 5-(2,4-Dichlorophenyl)-3-cyclohexylimino-2-(3-pyridyl)amino-3,5-dihydrophenazine], the MIC under setting [2] was found to be 0.054 µg/mL (≈ 0.105 µM).

As for `Cc1ccc(Nc2cc3nc4ccccc4n(-c4ccc(F)cc4)c-3c/c2=N\C2CCOCC2)cn1` [TBI-900, 5-(4-Fluorophenyl)-3-(4-tetrahydropyranyl)imino-2-(6-methyl-3-pyridyl)amino-3,5-dihydrophenazine], the MIC under setting [2] was determined as 0.125 µg/mL (≈ 0.261 µM).

For the compound `CC(C)/N=c1\cc2n(-c3ccc(OC(F)(F)F)cc3)c3ccccc3nc-2cc1Nc1cnccn1` [TBI-953, 5-(4-Trifluoromethoxyphenyl)-3-(1-methylethyl)imino-2-(pyrazin-2-yl)amino-3,5-dihydrophenazine], the MIC under setting [1] turned out to be 0.015 µg/mL (≈ 0.0306 µM).

With `Cc1ncccc1Nc1cc2nc3ccccc3n(-c3ccc(C(F)(F)F)cc3)c-2c/c1=N\C1CCCCC1` [TBI-708, 5-(4-Trifluoromethylphenyl)-3-cyclohexylimino-2-(2-methyl-3-pyridyl)amino-3,5-dihydrophenazine], the MIC under setting [2] was 0.028 µg/mL (≈ 0.0531 µM).

In the case of `Fc1ccc(-n2c3c/c(=N\C4CCOCC4)c(Nc4ncccn4)cc-3nc3ccccc32)cc1` [TBI-1084, 5-(4-Fluorophenyl)-3-(4-tetrahydropyranyl)imino-2-(pyrimidin-2-yl)amino-3,5-dihydrophenazine], the MIC under setting [1] was determined as 0.043 µg/mL (≈ 0.0922 µM).

For the compound `COc1ncccc1Nc1cc2nc3cc(F)ccc3n(-c3ccc(Cl)cc3)c-2c/c1=N\C1CC1` [TBI-859, 8-Fluoro-5-(4-chlorophenyl)-3-cyclopropylimino-2-(2-methoxy-3-pyridyl)amino-3,5-dihydrophenazine], the MIC under setting [2] was 0.015 µg/mL (≈ 0.0309 µM).

For `CC(C)/N=c1\cc2n(-c3ccc(OC(F)(F)F)cc3)c3ccccc3nc-2cc1Nc1ncccc1[N+](=O)[O-]` [TBI-954, 5-(4-Trifluoromethoxyphenyl)-3-(1-methylethyl)imino-2-(3-nitro-2-pyridyl)amino-3,5-dihydrophenazine], under setting [1], the MIC amounted to 0.03 µg/mL (≈ 0.0561 µM).

For `Cc1ccc(Nc2cc3nc4ccccc4n(-c4ccccc4)c-3c/c2=N\C2CCC2)cn1` [TBI-506, 5-Phenyl-3-cyclobutylimino-2-(6-methyl-3-pyridyl)amino-3,5-dihydrophenazine], the MIC under setting [2] worked out at 0.05 µg/mL (≈ 0.116 µM).

Turning to `COc1ccc2nc3cc(Nc4ccc(C)nc4)/c(=N/C4CC4)cc-3n(-c3ccc(Cl)cc3)c2c1` [TBI-868, 7-Methoxy-5-(4-chlorophenyl)-3-cyclopropylimino-2-(6-methyl-3-pyridyl)amino-3,5-dihydrophenazine], the MIC under setting [2] came to 0.028 µg/mL (≈ 0.0581 µM).

Source of the values: patent US8716292B2, “Riminophenazines with 2-(heteroaryl)amino substituents and their anti-microbial activity” (priority 2010, dated 2014).
